# Data reported in article PMC4481117 (Molecular Pain, 2015).
# Experiments:
# [1] = tested on: μ- and δ-opioid receptors; design: method as in PMID 8624732; settings: cited from earlier work
# cells = settings: cited from earlier work
# macrophages = settings: cited from earlier work
# From the text: (§1) Apart from their effects on κ-opioid receptors on neurons, Dyn A exerts numerous effects on leukocytes, particularly myeloid cells. […] In addition, Dyn A (residues 1–13) and Dyn A (residues 1–9) stimulate ...
# macrophage = settings: cited from earlier work
# From the text: as §1
# rat mast cells = settings: cited from earlier work
# From the text: as §1
# LFA-1 (αLβ2, CD11a/CD18) = experiment: Adhesion of LFA-1-expressing HEK293 cells to immobilized peptide; assay type: cell-based, Human; settings: peptide immobilized at 10 μM, 30 min at 37 °C
# Method: Fig. 3 Adhesion of Mac-1-expressing cells to Dyn A and Dyn B. a, Mac-1-expressing and wild-type HEK293 cells were labeled with calcein and 5x10^4 cells were added to the wells coated with different concentrations of the Dyn A. After 30 min at 37 °C, nonadherent cells were removed and fluorescence was measured. The data shown are means of triplicate determinations, and error bars represent S.E. The figure is representative of 8 experiments. b , adhesion of HEK293 cells expressing Mac-1, LFA and the I-less form of Mac-1 to Dyn A and Dyn B immobilized at 10 μM was determined as described in A. c, calcein-labeled Mac-1-HEK293 cells were preincubated without or with 10 μg/ml of anti-αM mAb 44a or 1 μg/ml NIF for 15 minutes. For testing the role of glucosaminoglycans in cell adhesion, dynorphin A-coated wells were preincubated with 100 μl of 10 μg/ml of chondroitin sulfate A, chondroitin sulfate B and heparin. […]
# Adhesion assays were performed essentially as described previously. […] Fluorescence was measured in a CytoFluorII fluorescence plate reader (Perceptive Biosystems, Framingham, MA). […] After aspirating the solution, labeled cells were added and cell adhesion was analyzed as above.
# GST = experiment: Solid-phase binding of GST (control); settings: immobilized Dyn A; % of the αMI-domains; not shown
# Method: Microtiter plates were coated with different concentrations of the fibrinogen D100 fragment or Dyn A overnight at 4 °C and post-coated with 3 % BSA for 1 h. The GST-αMI-domains in 20 mM Tris–HCl, pH 7.4, 100 mM NaCl, 1 mM MgCl2, 1 mM CaCl2, 0.05 % Tween 20, and 5 % glycerol were added to the wells and incubated for 1.5 h at 22 °C. After washing, the plates were incubated with an anti-GST mAb at a 1:5000 dilution for 1 h at 22 °C. After washing, goat anti-mouse IgG conjugated to alkaline phosphatase was added for 1 h and the binding of the αMI-domains was detected by reaction with p-nitrophenyl phosphate measuring the absorbance at 405 nm. Background binding to BSA was subtracted.
# IC-21 macrophages = experiment: Phagocytosis of Dyn A-coated latex beads by IC-21 macrophages; assay type: cell-based, murine; settings: 1 μm beads preincubated with 50 μg/ml Dyn A, 30 min at 37 °C; vs control beads
# Method: Fig. 8 Effect of Dyn A on phagocytosis of latex beads. a, Fluorescent latex beads (1x10^9/ml) were preincubated with Dyn A (50 μg/ml) for 40 min at 37 °C. Soluble peptide was removed from the beads by high-speed centrifugation. Peptide-coated beads were incubated with adherent IC-21 macrophages for 30 min at 37 °C. Nonphagocytosed beads were removed from cells by washing with PBS. […] Rat IgG2b was used as an isotype control for anti-αM mAb M1/70. Phagocytosis was quantified for five random fields per well using a 20x objective. Phagocytosis of Dyn A-treated beads was assigned as 100 %.
# A suspension of fluorescent […] latex beads (1x10^9/ml) (FluoSpheres sulfate microspheres, Life Technologies, Carlsbad, CA) was incubated with 50 μg/ml of Dyn A for 40 min at 37 °C, then unbound peptide was removed by centrifugation. IC-21 murine macrophages (5 × 10^5/ml) were adhered on the cover glass for 30 min and 3 × 10^6 of peptide-coated beads were added to adherent IC-21 cells. After incubating for 30 minutes at 37 °C, nonphagocytosed beads were separated from macrophages by washing with 3x1 ml PBS and phagocytosed beads were counted in the presence of trypan blue. […] The ratio of beads per macrophage was quantified by taking photographs of five fields for each well using a Leica DM4000 B microscope (Leica Microsystems, Buffalo Grove, IL) with a 20 × objective.
structure (smiles),measurement,setting,value
CC[C@H](C)[C@H](NC(=O)[C@H](CCCNC(=N)N)NC(=O)[C@H](CCCNC(=N)N)NC(=O)[C@H](CC(C)C)NC(=O)[C@H](Cc1ccccc1)NC(=O)CNC(=O)CNC(=O)[C@@H](N)Cc1ccc(O)cc1)C(=O)N[C@@H](CCCNC(=N)N)C(=O)N1CCC[C@H]1C(=O)N[C@@H](CCCCN)C(=O)N[C@@H](CC(C)C)C(=O)N[C@@H](CCCCN)C(=O)N[C@@H](Cc1c[nH]c2ccccc12)C(=O)N[C@@H](CC(=O)O)C(=O)N[C@@H](CC(N)=O)C(=O)N[C@@H](CCC(N)=O)C(=O)O [Dyn A],μ- and δ-opioid receptor binding,[1],can bind to μ- and δ-opioid receptors
same,Cell entry,cells,enters the cells
same,Secretion of IL-1 and TNFα,macrophages,increase secretion of IL-1 and TNFα by macrophages
same,Superoxide generation,macrophage,stimulate macrophage superoxide generation
same,Zymosan-triggered oxidative burst,macrophage,enhance macrophage zymosan-triggered oxidative burst
same,Nitric oxide release,macrophage; induced by LPS and IFN-γ,decrease nitric oxide release induced by LPS and IFN-γ
same,Degranulation and histamine release,rat mast cells,induce degranulation and histamine release from rat mast cells
same,Adhesion of LFA-1-HEK293 cells,"LFA-1 (αLβ2, CD11a/CD18)",13 ± 2%
same,Binding of GST to Dyn A relative to the αMI-domains,GST,less than 5%
same,Augmentation of bead uptake,IC-21 macrophages,~ 10 -fold
